Holding throughout (conditions): reference: Karl et al. (2003)
A short description of series [1]: Henry solubility constant Hcp at 295 K (mol/(m3 Pa)).
The nature of series [2]: Henry solubility constant Hcp at 298.15 K (mol/(m3 Pa)).
Series [3] is described as follows: Henry solubility constant Hcp at 291 K (mol/(m3 Pa)).

These results are taken from Sander's compilation of Henry's law constants (doi:10.1016/s1387-3806(02)00927-2).

`Cc1cc(C)cc(C)c1` [1,3,5-trimethylbenzene]: in series [1], the “Henry solubility constant Hcp at 295 K” value is 0.002. With `Cc1cccc(C)c1` [1,3-dimethylbenzene], the “Henry solubility constant Hcp at 295 K” value in series [1] was determined as 0.0013. `CCc1cccc(O)c1` [1-hydroxy-3-ethylbenzene]: the “Henry solubility constant Hcp” value in series [2] was 4.9. Take `CC1=CC=C(C(C)C)CC1` [1-methyl-4-(1-methylethyl)-1,3-cyclohexadiene]: the “Henry solubility constant Hcp at 295 K” value in series [1] turned out to be 0.00045. Regarding `COc1nccnc1CC(C)C` [2-isobutyl-3-methoxypyrazine], in series [2], the “Henry solubility constant Hcp” value was 0.17. Regarding `C=CC(=C)C` [2-methyl-1,3-butadiene], the “Henry solubility constant Hcp at 291 K” value in series [3] turned out to be 0.00029. For `CCC/C=C/C=O` [(E)-2-hexenal], the “Henry solubility constant Hcp” value in series [2] was 0.14.

As for `CC/C=C/CCOC(C)=O` [(E)-3-hexenyl ethanoate], the “Henry solubility constant Hcp” value in series [2] worked out at 0.033. Consider `CC/C=C\CCOC(C)=O` [(Z)-3-hexenyl ethanoate], for which the “Henry solubility constant Hcp” value in series [2] was determined as 0.031.

As for `c1ccccc1` [benzene], in series [1], the “Henry solubility constant Hcp at 295 K” value stood at 0.0018. Turning to `CCCCCCOC(C)=O` [hexyl ethanoate], the “Henry solubility constant Hcp” value in series [2] worked out at 0.015. `Cc1ccccc1` [methylbenzene]: the “Henry solubility constant Hcp at 295 K” value in series [1] is 0.0014. On the same count and under the same terms, next, `CCCc1ccccc1` [propylbenzene]: 0.0015.
